# Data taken from US20260061026A1, “COMBINATION OF INOSITOL PHOSPHORYLCERAMIDE SYNTHETASE INHIBITOR AND AMPHOTERICIN B, AND USE THEREOF” (priority 2023, published 2026).
# Tested on: Cryptococcus neoformans var. grubii H99
# Experiment: Fungicidal efficacy (CFU survival rate) of AbA, AmB and their combination, with or without IPC
# Type: cell-based
# Conditions: AmB 1 μg/mL, 1 hour in YPD medium; for the combination AbA 1 μg/mL added 6 hours before AmB
# Procedure: In this example, the antifungal activity of AbA was evaluated. Specifically, the inventors tested the activity of AbA alone and in combination with AmB against Cryptococcus. In addition, the inventors also tested the effect of purified IPC on the antifungal activity of AbA alone and in combination with AmB against Cryptococcus. The specific experimental procedures are as follows.
# In this example, a total of 5 groups were set up, including AbA alone, AmB alone, AbA combined with AmB, AbA combined with AmB in the presence of 1 mg/mL IPC, and AbA combined with AmB in the presence of 10 mg/mL IPC. The fungicidal efficacy of the above 5 groups of treatments against Cryptococcus neoformans var. grubii H99 (a laboratory strain) was evaluated. The survival rate of Cryptococcus after 1 hour of treatment with AmB in YPD medium was determined by calculating the CFU ratio between AmB-treated and untreated samples. AbA and IPC were added 6 hours prior to AmB treatment as a pre-treatment. AbA was purchased from Biorigin, AmB from Inalco, and IPC was extracted from an ERG6 gene knockout H99 mutant strain defective in ergosterol biosynthesis.
smiles,measurement,value
"C[C@@H]1[C@H](O)[C@@H](C)/C=C/C=C/C=C/C=C/C=C/C=C/C=C/[C@H](O[C@@H]2O[C@H](C)[C@@H](O)[C@H](N)[C@@H]2O)C[C@@H]2O[C@](O)(C[C@@H](O)C[C@@H](O)[C@H](O)CC[C@@H](O)C[C@@H](O)CC(=O)O[C@H]1C)C[C@H](O)[C@H]2C(=O)O [AmB, amphotericin B]",survival rate of Cryptococcus neoformans (CFU ratio between AmB-treated and untreated samples),39%
